pIC50: −log10 of the molar value.
Columns and labels:
[1] = target: dopamine transporter (DAT) (Homo sapiens, UniProt Q01959); assay: Dopamine reuptake inhibition, [3H]-DA, HEK-293 cells transfected with dopamine transporter cDNA; conditions: for Triple reuptake inhibition (Ratio %) DAT: compound 1 μM, relative to control without compound (100%), lower value = stronger inhibition
Procedure: (§1) After removing the medium, each compound of Examples or Comparative Examples diluted to 1 μM in uptake buffer was added to a concentration of 200 μL/well and cultured at 37° C. for 15 minutes. 100 μL of uptake buffer containing 20-30 nM [3H]-DA was added and cultured at 37° C. for 5 minutes. The reaction solution was quickly removed and washed three times with 1 mL ice-cold uptake buffer. After dissolving the resultant in 1% SDS (0.5 mL), the degree of binding of radioisotope-labeled dopamine to the transporter was measured.
(§2) In addition, when evaluating the reuptake inhibitory effect on dopamine, norepinephrine, and serotonin, the same method was performed without treating each compound of Examples or Comparative Examples as a control, the degree of binding of radioisotope-labeled dopamine, norepinephrine, and serotonin to the transporter was measured, and by using this as a reference (100%), the triple reuptake inhibitory effect was evaluated as a relative ratio (Ratio %). That is, in the control group, the binding of dopamine, norepinephrine, and serotonin to transporters is not inhibited, but when each compound of Examples is treated and thus the binding is inhibited, the Ratio % value decreases.

[2] = target: norepinephrine transporter (NET) (Homo sapiens, UniProt P23975); assay: Norepinephrine reuptake inhibition, [3H]-NE, cells transfected with NE transporter cDNA; conditions: for Triple reuptake inhibition (Ratio %) NET: compound 1 μM, relative to control without compound (100%), lower value = stronger inhibition
Procedure: as §1
(§3) For norepinephrine(NE) and serotonin(5-HT), the degree of binding of radioisotope-labeled norepinephrine or serotonin to the transporter was measured in the same manner as above, except that cells transfected with NE or 5-HT transporter cDNA were used and [3H]-NE or [3H]-5-HT was used as a substrate.
as §2

[3] = target: serotonin transporter (SERT) (Homo sapiens, UniProt P31645); assay: Serotonin reuptake inhibition, [3H]-5-HT, cells transfected with 5-HT transporter cDNA; conditions: for Triple reuptake inhibition (Ratio %) SERT: compound 1 μM, relative to control without compound (100%), lower value = stronger inhibition
serotonin transporter (SERT), sequence (P31645 whole entry, species assumed): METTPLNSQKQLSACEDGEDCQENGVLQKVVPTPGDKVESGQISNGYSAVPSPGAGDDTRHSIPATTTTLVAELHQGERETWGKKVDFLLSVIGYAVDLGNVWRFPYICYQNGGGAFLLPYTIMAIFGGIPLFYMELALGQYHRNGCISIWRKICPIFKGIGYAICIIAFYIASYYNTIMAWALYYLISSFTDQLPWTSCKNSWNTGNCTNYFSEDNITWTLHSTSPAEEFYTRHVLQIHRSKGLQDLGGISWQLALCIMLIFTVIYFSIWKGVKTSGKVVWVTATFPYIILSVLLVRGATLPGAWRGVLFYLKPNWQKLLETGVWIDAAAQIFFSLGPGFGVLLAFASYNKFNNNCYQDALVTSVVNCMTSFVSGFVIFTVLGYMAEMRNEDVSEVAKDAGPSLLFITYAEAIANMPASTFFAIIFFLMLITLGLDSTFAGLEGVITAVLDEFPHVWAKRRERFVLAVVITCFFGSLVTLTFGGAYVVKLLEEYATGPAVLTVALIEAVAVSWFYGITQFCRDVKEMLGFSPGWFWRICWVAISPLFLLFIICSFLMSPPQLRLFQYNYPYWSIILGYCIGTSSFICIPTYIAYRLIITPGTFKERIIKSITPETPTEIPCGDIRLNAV
Procedure: as §1, §3, §2

dopamine transporter (DAT), sequence (Q01959 whole entry, species assumed): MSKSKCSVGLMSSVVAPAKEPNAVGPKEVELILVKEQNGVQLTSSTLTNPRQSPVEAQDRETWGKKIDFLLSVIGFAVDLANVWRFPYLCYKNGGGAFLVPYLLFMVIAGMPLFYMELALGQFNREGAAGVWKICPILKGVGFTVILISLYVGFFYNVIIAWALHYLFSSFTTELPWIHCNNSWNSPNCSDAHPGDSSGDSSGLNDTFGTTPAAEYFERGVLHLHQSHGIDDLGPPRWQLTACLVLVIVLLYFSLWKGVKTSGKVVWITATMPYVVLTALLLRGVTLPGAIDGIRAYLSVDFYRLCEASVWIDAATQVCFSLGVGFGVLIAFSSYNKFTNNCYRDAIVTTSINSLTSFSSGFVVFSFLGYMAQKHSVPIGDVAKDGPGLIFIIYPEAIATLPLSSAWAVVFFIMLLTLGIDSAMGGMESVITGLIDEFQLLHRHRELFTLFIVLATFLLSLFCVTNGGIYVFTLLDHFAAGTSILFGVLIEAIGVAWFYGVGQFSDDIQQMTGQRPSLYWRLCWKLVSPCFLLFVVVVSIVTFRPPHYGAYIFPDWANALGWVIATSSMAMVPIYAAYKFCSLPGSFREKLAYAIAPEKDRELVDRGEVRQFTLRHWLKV
norepinephrine transporter (NET), sequence (P23975 whole entry, species assumed): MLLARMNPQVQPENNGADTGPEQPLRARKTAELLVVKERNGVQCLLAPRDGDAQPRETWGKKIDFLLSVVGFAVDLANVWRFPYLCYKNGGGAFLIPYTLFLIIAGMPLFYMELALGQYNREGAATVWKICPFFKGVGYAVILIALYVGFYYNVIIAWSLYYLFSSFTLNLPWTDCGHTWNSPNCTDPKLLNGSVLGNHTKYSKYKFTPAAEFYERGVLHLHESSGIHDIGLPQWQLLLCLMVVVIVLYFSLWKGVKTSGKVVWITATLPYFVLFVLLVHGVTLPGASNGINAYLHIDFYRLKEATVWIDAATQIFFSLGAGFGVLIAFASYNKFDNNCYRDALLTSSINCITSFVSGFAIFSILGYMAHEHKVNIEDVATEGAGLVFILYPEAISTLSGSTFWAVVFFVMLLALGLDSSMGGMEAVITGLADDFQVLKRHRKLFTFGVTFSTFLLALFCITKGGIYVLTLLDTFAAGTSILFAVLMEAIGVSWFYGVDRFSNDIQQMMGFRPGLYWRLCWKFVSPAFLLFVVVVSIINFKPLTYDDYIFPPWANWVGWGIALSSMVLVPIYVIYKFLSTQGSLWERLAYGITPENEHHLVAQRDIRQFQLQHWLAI

| SMILES | Triple reuptake inhibition (Ratio %) DAT [1] [%] | Triple reuptake inhibition (Ratio %) NET [2] [%] | Triple reuptake inhibition (Ratio %) SERT [3] [%] | pIC50 [1] | pIC50 [2] | pIC50 [3] |
| --- | --- | --- | --- | --- | --- | --- |
| c1ccc(CC2CCN(Cc3nnc(-c4cc5ccccc5s4)[nH]3)CC2)cc1 [Example 26, 1-((5-(benzo[b]thiophen-2-yl)-4H-1,2,4-triazol-3-yl)methyl)-4-benzylpiperidine] | 26.92 | 53.01 | 88.78 | – | – | – |
| c1ccc(CC2CCN(Cc3nnc(-c4ccc5c(c4)OCO5)[nH]3)CC2)cc1 [Example 27, 1-((5-(benzo[d][1,3]dioxol-5-yl)-4H-1,2,4-triazol-3-yl)methyl)-4-benzylpiperidine] | 9.71 | 53.55 | 59.52 | 7.21 | 5.70 | 6.01 |
| O=C(O)c1ccc2[nH]c(-c3nnc(CN4CCC(Cc5ccccc5)CC4)[nH]3)cc2c1 [Example 28, 2-(5-((4-benzylpiperidin-1-yl)methyl)-4H-1,2,4-triazol-3-yl)-1H-indol-5-carboxylic acid] | 65.47 | 85.85 | 93.63 | – | – | – |
| Fc1ccc2[nH]c(-c3nnc(CN4CCC(Cc5ccc(Cl)c(Cl)c5)CC4)[nH]3)cc2c1 [Example 29, 2-(5-((4-(3,4-dichlorobenzyl)piperidin-1-yl)methyl)-4H-1,2,4-triazol-3-yl)-5-fluoro-1H-indole] | 36.13 | 45.28 | 72.63 | – | – | – |
| Cc1ccc2[nH]c(-c3nnc(CN4CCC(Cc5ccc(Cl)c(Cl)c5)CC4)[nH]3)cc2c1 [Example 30, 2-(5-((4-(3,4-dichlorobenzyl)piperidin-1-yl)methyl)-4H-1,2,4-triazol-3-yl)-5-methyl-1H-indole] | 72.11 | 96.77 | 88.71 | – | – | – |
| COc1cc2cc(-c3nnc(CN4CCC(Cc5ccc(Cl)c(Cl)c5)CC4)[nH]3)[nH]c2cc1OC [Example 31, 2-(5-((4-(3,4-dichlorobenzyl)piperidin-1-yl)methyl)-4H-1,2,4-triazol-3-yl)-5,6-dimethoxy-1H-indole] | 19.20 | 32.54 | 32.68 | 6.69 | 6.34 | 6.56 |
| Fc1ccc2[nH]c(-c3nnc(CN4CCC(c5c[nH]c6ccccc56)CC4)[nH]3)cc2c1 [Example 32, 2-(5-((4-(1H-indol-3-yl)piperidin-1-yl)methyl)-4H-1,2,4-triazol-3-yl)-5-fluoro-1H-indole] | 44.81 | 93.09 | 51.31 | – | – | – |
| c1ccc(CC2CCN(Cc3nnc(-c4cc5ccccc5[nH]4)o3)CC2)cc1 [Example 33, 2-((4-benzylpiperidin-1-yl)methyl)-5-(1H-indol-2-yl)-1,3,4-oxadiazole] | 97.72 | 145.38 | 103.08 | – | – | – |
| Clc1ccc(CC2CCN(Cc3nnc(-c4cc5ccccc5[nH]4)o3)CC2)cc1Cl [Example 34, 2-((4-(3,4-dichlorobenzyl)piperidin-1-yl)methyl)-5-(1H-indol-2-yl)-1,3,4-oxadiazole] | 90.85 | 124.25 | 94.18 | – | – | – |
| Oc1cc2cc(-c3nnc(CN4CCC(Cc5ccccc5)CC4)[nH]3)[nH]c2cc1O [Example 35, 2-(5-((4-benzylpiperidin-1-yl)methyl)-4H-1,2,4-triazol-3-yl)-1H-indol-5,6-diol] | 35.65 | 56.53 | 27.99 | 6.20 | 6.37 | 6.52 |
| COc1ccc2[nH]cc(-c3nnc(CN4CCC(Cc5ccccc5)CC4)[nH]3)c2c1 [Example 36, 3-(5-((4-benzylpiperidin-1-yl)methyl)-4H-1,2,4-triazol-3-yl)-5-methoxy-1H-indole] | 69.78 | 85.40 | 41.52 | – | – | – |
| COc1cccc2c(-c3nnc(CN4CCC(Cc5ccccc5)CC4)[nH]3)c[nH]c12 [Example 37, 3-(5-((4-benzylpiperidin-1-yl)methyl)-4H-1,2,4-triazol-3-yl)-7-methoxy-1H-indole] | 40.29 | 79.91 | 27.71 | 6.46 | 5.80 | 6.49 |
| Cc1ccc2c(-c3nnc(CN4CCC(Cc5ccccc5)CC4)[nH]3)c[nH]c2c1 [Example 38, 3-(5-((4-benzylpiperidin-1-yl)methyl)-4H-1,2,4-triazol-3-yl)-6-methyl-1H-indole] | 31.70 | 64.82 | 51.55 | 6.17 | 6.44 | 6.29 |
| Cc1ccc2[nH]cc(-c3nnc(CN4CCC(Cc5ccccc5)CC4)[nH]3)c2c1 [Example 39, 3-(5-((4-benzylpiperidin-1-yl)methyl)-4H-1,2,4-triazol-3-yl)-5-methyl-1H-indole] | 79.20 | 99.14 | 58.07 | – | – | – |
| Clc1cccc2c(-c3nnc(CN4CCC(Cc5ccccc5)CC4)[nH]3)c[nH]c12 [Example 40, 3-(5-((4-benzylpiperidin-1-yl)methyl)-4H-1,2,4-triazol-3-yl)-7-chloro-1H-indole] | 50.15 | 92.42 | 53.66 | 6.17 | 6.03 | 6.19 |
| Clc1ccc2[nH]cc(-c3nnc(CN4CCC(Cc5ccccc5)CC4)[nH]3)c2c1 [Example 41, 3-(5-((4-benzylpiperidin-1-yl)methyl)-4H-1,2,4-triazol-3-yl)-5-chloro-1H-indole] | 62.96 | 86.61 | 57.01 | – | – | – |

Now from value to compound:

| Triple reuptake inhibition (Ratio %) DAT [1] [%] | Triple reuptake inhibition (Ratio %) NET [2] [%] | Triple reuptake inhibition (Ratio %) SERT [3] [%] | pIC50 [1] | pIC50 [2] | pIC50 [3] | SMILES |
| --- | --- | --- | --- | --- | --- | --- |
| 42.13 | 96.81 | 42.17 | 6.34 | 6.01 | 6.38 | COC(=O)c1cccc2c(-c3nnc(CN4CCC(Cc5ccccc5)CC4)[nH]3)c[nH]c12 [Example 42, methyl 3-(5-((4-benzylpiperidin-1-yl)methyl)-4H-1,2,4-triazol-3-yl)-1H-indol-7-carboxylate] |
| 54.93 | 88.30 | 35.57 | 6.36 | 5.39 | 6.30 | Nc1ccc2[nH]cc(-c3nnc(CN4CCC(Cc5ccccc5)CC4)[nH]3)c2c1 [Example 43, 3-(5-((4-benzylpiperidin-1-yl)methyl)-4H-1,2,4-triazol-3-yl)-1H-indol-5-amine] |
| 80.58 | 92.59 | 28.87 | – | – | – | COc1ccc2[nH]cc(-c3nnc(CN4CCC(Cc5ccc(Cl)c(Cl)c5)CC4)[nH]3)c2c1 [Example 44, 3-(5-((4-(3,4-dichlorobenzyl)piperidin-1-yl)methyl)-4H-1,2,4-triazol-3-yl)-5-methoxy-1H-indole] |
| 72.49 | 112.38 | 21.98 | – | – | – | COc1cccc2c(-c3nnc(CN4CCC(Cc5ccc(Cl)c(Cl)c5)CC4)[nH]3)c[nH]c12 [Example 45, 3-(5-((4-(3,4-dichlorobenzyl)piperidin-1-yl)methyl)-4H-1,2,4-triazol-3-yl)-7-methoxy-1H-indole] |
| 13.85 | 53.00 | 60.13 | 6.69 | 6.09 | 5.53 | N#Cc1ccc(-c2nnc(CN3CCC(Cc4ccccc4)CC3)[nH]2)cc1 [Example 46, 4-(5-((4-benzylpiperidin-1-yl)methyl)-4H-1,2,4-triazol-3-yl)benzonitrile] |
| 20.47 | 68.26 | 51.93 | 6.43 | 5.93 | 4.97 | Fc1ccc(-c2nnc(CN3CCC(Cc4ccccc4)CC3)[nH]2)cc1 [Example 47, 4-benzyl-1-((5-(4-fluorophenyl)-4H-1,2,4-triazol-3-yl)methyl)piperidine] |
| 20.20 | 23.52 | 53.41 | 6.87 | 6.46 | 5.59 | COc1ccc(-c2nnc(CN3CCC(Cc4ccccc4)CC3)[nH]2)cc1OC [Example 48, 4-benzyl-1-((5-(3,4-dimethoxyphenyl)-4H-1,2,4-triazol-3-yl)methyl)piperidine] |
| 11.41 | 44.81 | 63.99 | 6.65 | 6.32 | 5.75 | FC(F)(F)Oc1ccc(-c2nnc(CN3CCC(Cc4ccccc4)CC3)[nH]2)cc1 [Example 49, 4-benzyl-1-((5-(4-(trifluoromethoxy)phenyl)-4H-1,2,4-triazol-3-yl)methyl)piperidine] |

— patent publication US20230212144A1, “5-MEMBERED HETEROARYL DERIVATIVE CONTAINING AT LEAST ONE N, AND PHARMACEUTICAL COMPOSITION FOR PREVENTING OR TREATING MENTAL DISORDERS, CONTAINING SAME AS ACTIVE INGREDIENT” (DAEGU-GYEONGBUK MEDICAL INNOVATION FOUNDATION, priority 2020, published 2023)
